Test results taken from US20250382272A1, “CRYSTALLINE FORM OF INDAZIFLAM, METHODS FOR ITS PREPARATION AND USE THEREOF” (ADAMA AGAN LTD., priority 2022, published 2025).

Assay: Bulk and tapped density, compressibility index (USP <1174> Powder Flow) of indaziflam crystal samples
Format: physicochemical
Conditions: for Tap density: cylinder manually tapped (dropped) 50 times, ~1 second between taps; for Bulk Density: sample poured into tared cylinder to 250 ml mark and weighed; for flowability: judged from compressibility index as explained in US Pharmacopoeia method <1174> Powder Flow
Description: For purposes of sufficiency of disclosure, the “compressibility index” means in the present invention the compressibility index measured according to US Pharmacopoeia method <1174> Powder Flow, revision from 20 Jan. 2023.
Bulk and tapped density measurements are obtained by placing a sample onto a glazed paper. Then, the sample is poured into the tared cylinder until 250 ml mark is reached. The amount of sample is weighed. Rubber bung is fitted into the cylinder. Cylinder is placed in the dropping box and manually tapped (dropped) 50 times with ˜1 second time difference between taps. Compressibility index is calculated from the bulk density and the tapped density as explained in US Pharmacopoeia method <1174> Powder Flow, revision from 20 Jan. 2023.

Compound | Tap density | Bulk Density | flowability
Cc1ccc2c(c1)[C@H](Nc1nc(N)nc([C@@H](C)F)n1)[C@@H](C)C2 [Example 1, N-[(1R,2S)-2,6-dimethyl-2,3-dihydro-1H-inden-yl]-6-[(1R)-1-fluoroethyl]-1,3-5-triazine-2,4-diamine] | 0.65 gr/ml | 0.56 gr/ml | –
Cc1ccc2c(c1)[C@H](Nc1nc(N)nc([C@@H](C)F)n1)[C@@H](C)C2 [Comparative Example 3, N-[(1R,2S)-2,6-dimethyl-2,3-dihydro-1H-inden-yl]-6-[(1R)-1-fluoroethyl]-1,3-5-triazine-2,4-diamine, reference compound] | 0.59 gr/ml | 0.48 gr/ml | not good
Cc1ccc2c(c1)[C@H](Nc1nc(N)nc([C@@H](C)F)n1)[C@@H](C)C2 [Example 2, N-[(1R,2S)-2,6-dimethyl-2,3-dihydro-1H-inden-yl]-6-[(1R)-1-fluoroethyl]-1,3-5-triazine-2,4-diamine] | 0.52 gr/ml | 0.47 gr/ml | good flowability
